# According to the supplement of paper PMC10307832:
# Legend:
# Assay in all cases: relative viability (nuclei count vs DMSO), 5 days (fraction); higher = more cells survive
# [1] = compound: NCC(=O)Nc1ccc(-n2nc(C(F)(F)F)cc2-c2ccc3c(ccc4ccccc43)c2)cc1 + Cc1cc(Nc2cc(N3CCN(C)CC3)nc(Sc3ccc(NC(=O)C4CC4)cc3)n2)n[nH]1 [Tozasertib] (partner 0.1 µM)
# Method in brief: (§1)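 Five library-drug doses in √10 steps were combined with a fixed anchor-drug dose, or a single drug was given alone, by pin tool to lung cancer cell lines in 1536-well plates the day after seeding. Nuclei were stained and counted after 5 days. Relative viability is the nuclei count in treated wells over that in vehicle wells, taken as the median of duplicate plates.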
# [2] = compound: C1CSC2=C(C(=O)N1)SC3=C2C=C(C=C3)O [kb NB 142-70] + O=C(CCCCCCC(=O)Nc1ccccc1)NO [Vorinostat] (partner 1 µM)
# Method in brief: as §1
# [3] = compound: NCC(=O)Nc1ccc(-n2nc(C(F)(F)F)cc2-c2ccc3c(ccc4ccccc43)c2)cc1 + Nc1ncn([C@H]2C[C@H](O)[C@@H](CO)O2)c(=O)n1 [Decitabine] (partner 2 µM)
# Method in brief: as §1
# kb NB 142-70 + Lapatinib = compound: C1CSC2=C(C(=O)N1)SC3=C2C=C(C=C3)O [kb NB 142-70] + CS(=O)(=O)CCNCc1ccc(-c2ccc3ncnc(Nc4ccc(OCc5cccc(F)c5)c(Cl)c4)c3c2)o1 [Lapatinib] (partner 2 µM)
# Method in brief: as §1
# kb NB 142-70 + Olaparib = compound: C1CSC2=C(C(=O)N1)SC3=C2C=C(C=C3)O [kb NB 142-70] + O=C(c1cc(Cc2n[nH]c(=O)c3ccccc23)ccc1F)N1CCN(C(=O)C2CC2)CC1 [Olaparib] (partner 8 µM)
# Method in brief: as §1
Cell Line,relative viability ([1]; first compound 0.02 µM),relative viability ([1]; first compound 0.06325 µM),relative viability ([1]; first compound 0.2 µM),relative viability ([1]; first compound 0.6325 µM),relative viability ([1]; first compound 2 µM),relative viability ([2]; first compound 0.1 µM),relative viability ([2]; first compound 1 µM),relative viability ([2]; first compound 3.162 µM),relative viability ([3]; first compound 0.02 µM),relative viability ([3]; first compound 0.06325 µM),relative viability ([3]; first compound 0.2 µM),relative viability ([3]; first compound 0.6325 µM),relative viability ([3]; first compound 2 µM),relative viability (kb NB 142-70 + Lapatinib; first compound 0.1 µM),relative viability (kb NB 142-70 + Lapatinib; first compound 1 µM),relative viability (kb NB 142-70 + Lapatinib; first compound 3.162 µM),relative viability (kb NB 142-70 + Olaparib; first compound 0.1 µM),relative viability (kb NB 142-70 + Olaparib; first compound 1 µM),relative viability (kb NB 142-70 + Olaparib; first compound 3.162 µM)
NCI-H2087,0.208,0.272,0.21,0.26,0.259,0.506,0.687,0.423,0.249,0.245,0.246,0.282,0.251,0.935,1.22,0.897,0.506,0.589,0.411
NCI-H2126,0.842,0.892,0.874,0.864,0.852,0.755,0.796,0.805,0.568,0.568,0.583,0.596,0.572,0.818,0.739,0.783,0.928,0.899,0.816
NCI-H2170,0.743,0.726,0.779,0.799,0.771,0.823,0.86,0.744,0.496,0.454,0.518,0.446,0.45,0.295,0.305,0.258,0.661,0.596,0.543
NCI-H2347,0.586,0.71,0.482,0.618,0.73,0.629,0.641,0.599,0.661,0.599,0.74,0.615,0.599,1.02,1.07,0.936,0.634,0.632,0.568
NCI-H2405,0.745,0.853,0.779,0.733,0.868,1.04,1.03,0.587,0.686,0.759,0.837,0.723,0.754,1.11,1.07,0.896,0.824,0.895,0.723
NCI-H3122,0.412,0.431,0.391,0.366,0.236,0.908,1.08,0.887,0.445,0.418,0.495,0.448,0.435,0.872,1.01,0.947,0.648,0.714,0.793
PC-3 [JPC-3],0.9,0.889,0.976,0.971,0.828,0.814,0.846,0.458,0.818,0.854,0.768,0.863,0.777,0.452,0.481,0.433,1.12,1.25,1.15
PC-14,0.634,0.606,0.543,0.517,0.651,0.857,0.755,0.633,0.259,0.236,0.209,0.258,0.23,0.362,0.304,0.341,0.318,0.265,0.216
RERF-LC-KJ,0.449,0.548,0.555,0.552,0.403,0.729,0.754,0.677,0.758,0.791,0.673,0.78,0.641,0.956,0.88,0.942,1.03,1.01,0.675
SK-LU-1,0.324,0.335,0.386,0.346,0.339,0.831,0.642,0.371,0.6,0.658,0.734,0.615,0.633,0.865,0.802,0.527,0.423,0.396,0.271
SK-MES-1,0.939,1,0.914,0.866,0.856,1.09,1.21,0.567,0.386,0.36,0.461,0.359,0.4,0.448,0.503,0.541,0.719,0.484,0.181
SW 1573,0.244,0.15,0.272,0.228,0.182,0.655,0.426,0.327,0.496,0.524,0.524,0.518,0.436,1.03,0.877,0.988,0.421,0.305,0.177
